The nature of the data set: Assay (IV) determination of solubility. It is filed as physicochemical. The method, boiled down: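 Eight 100 mM buffers (glycylglycine pH 3.0–5.0, bistrispropane pH 6.0–8.0) each received an equal volume of polypeptide dissolved in water at ~500 nmol/ml. Soluble polypeptide was measured by HPLC following 18 hours at room temperature and centrifugation.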
Where [1] appears, read: pH 3, pH 3.0, read-out: Solubility pH 3.0.
[2] abbreviates: pH 4, pH 4.0, 18 hours at room temperature, Table 2, read-out: Solubility pH 4.0.
The mark [3] stands for this setting: pH 4, pH 4.0, read-out: Solubility pH 4.0.
Where [4] appears, read: pH 5, pH 5.0, read-out: Solubility pH 5.0.
The mark [5] stands for this setting: pH 6, pH 6.0, read-out: Solubility pH 6.0.
Setting [6] is: pH 6.5, pH 6.5, read-out: Solubility pH 6.5.
Where [7] appears, read: pH 7, pH 7.0, read-out: Solubility pH 7.0.
Setting [8] is: pH 7.5, pH 7.5, read-out: Solubility pH 7.5.
The mark [9] stands for this setting: pH 8, pH 8.0, read-out: Solubility pH 8.0.

In brackets after ≈: the same amount, converted by molar mass. Read-outs that look alike come from different tables or passages of the source. Starred links: 1 amine or outer side, 2 acyl side, 3 side chain; linkers in the order of their positions; H or OH if unused. Positions of bridges follow the written chain, without caps; N, C: chain ends. Residues, ends and D or L forms follow the SMILES beside them. Groups on a side chain read outwards from the residue. *: point of attachment. C20 diacid = O=C(O)CCCCCCCCCCCCCCCCCCC(=O)*; γGlu = O=C(O)[C@H](CCC(=O)[*:2])N[*:1]; AEEA = NCCOCCOCC(=O)O Bounds are passed on as bounds.

The term solubility denotes the dissolved amount per volume that the medium holds.

As for `CC[C@H](C)[C@H](NC(=O)[C@@H]1CCCN1C(=O)CNC(=O)[C@H](Cc1ccccc1)NC(=O)[C@H](CC(N)=O)NC(=O)[C@H](CCCCNC(=O)COCCOCCNC(=O)COCCOCCNC(=O)CC[C@H](NC(=O)CCCCCCCCCCCCCCCCCCC(=O)O)C(=O)O)NC(=O)[C@H](CO)NC(=O)[C@H](CO)NC(=O)[C@H](Cc1c[nH]cn1)NC(=O)[C@@H](NC(=O)[C@H](CC(C)C)NC(=O)[C@H](Cc1ccccc1)NC(=O)[C@H](CCC(=O)O)NC(=O)[C@H](C)NC(=O)[C@H](CC(C)C)NC(=O)[C@H](CCCNC(=N)N)NC(=O)[C@H](CCC(N)=O)NC(=O)[C@@H](NC(=O)[C@H](C)NC(=O)[C@@H]1CSSC[C@H](NC(=O)[C@@H](N)CCCCN)C(=O)N[C@@H](CC(N)=O)C(=O)N[C@@H]([C@@H](C)O)C(=O)N[C@@H](C)C(=O)N[C@@H]([C@@H](C)O)C(=O)N1)[C@@H](C)O)C(C)C)C(=O)N[C@@H](CC(C)C)C(=O)N[C@@H](CO)C(=O)N[C@@H](CO)C(=O)N[C@H](C(=O)N[C@@H](CC(N)=O)C(=O)N[C@H](C(=O)NCC(=O)N[C@@H](CO)C(=O)N[C@@H](Cc1c[nH]cn1)C(=O)N[C@H](C(=O)N[C@@H](Cc1ccc(O)cc1)C(N)=O)[C@@H](C)O)C(C)C)[C@@H](C)O` [Example 131, N-epsilon21-[2-(2-{2-[2-(2-{2-[(S)-4-Carboxy-4-(19-carboxyheptadecanoylamino)butyrylamino]ethoxy}ethoxy)acetylamino]ethoxy}ethoxy)acetyl]-[Glu14,Lys21,Ser28,Ser29,His35]-pramlintide] (H-KCNTATCATQRLAEFLVHSSK([AEEA-AEEA-γGlu-C20 diacid])NFGPILSSTNVGSHTY-NH2; disulfide 2-7), the solubility was over 200 µM under setting [1]; 172 µM (≈ 813 µg/mL) under setting [2]; 172 µM (≈ 813 µg/mL) under setting [3]; 150 µM (≈ 709 µg/mL) under setting [4]; 25 µM (≈ 118 µg/mL) under setting [5]; 27 µM (≈ 128 µg/mL) under setting [6]. In addition, the solubility is, setting by setting: under setting [7], 6 µM (≈ 28.4 µg/mL); under setting [8], 4 µM (≈ 18.9 µg/mL); under setting [9], 3 µM (≈ 14.2 µg/mL).

In the case of `CC[C@H](C)[C@H](NC(=O)[C@@H]1CCCN1C(=O)CNC(=O)[C@H](Cc1ccccc1)NC(=O)[C@H](CC(N)=O)NC(=O)[C@H](CCCCNC(=O)COCCOCCNC(=O)COCCOCCNC(=O)CC[C@H](NC(=O)CCCCCCCCCCCCCCCCCCC(=O)O)C(=O)O)NC(=O)[C@H](CO)NC(=O)[C@H](CO)NC(=O)[C@H](Cc1c[nH]cn1)NC(=O)[C@@H](NC(=O)[C@H](CC(C)C)NC(=O)[C@H](Cc1ccccc1)NC(=O)[C@H](CCC(=O)O)NC(=O)[C@H](C)NC(=O)[C@H](CC(C)C)NC(=O)[C@H](CCCNC(=N)N)NC(=O)[C@H](CCC(N)=O)NC(=O)[C@@H](NC(=O)[C@H](C)NC(=O)[C@@H]1CSSC[C@H](NC(=O)[C@@H](N)CCCCN)C(=O)N[C@@H](CC(N)=O)C(=O)N[C@@H]([C@@H](C)O)C(=O)N[C@@H](C)C(=O)N[C@@H]([C@@H](C)O)C(=O)N1)[C@@H](C)O)C(C)C)C(=O)N[C@@H](CC(C)C)C(=O)N[C@@H](CO)C(=O)N[C@@H](CCCNC(=N)N)C(=O)N[C@H](C(=O)N[C@@H](CC(N)=O)C(=O)N[C@H](C(=O)NCC(=O)N[C@@H](CO)C(=O)N[C@@H](Cc1c[nH]cn1)C(=O)N[C@H](C(=O)N[C@@H](Cc1ccc(O)cc1)C(N)=O)[C@@H](C)O)C(C)C)[C@@H](C)O` [Example 147, N-epsilon21-[2-(2-{2-[2-(2-{2-[(S)-4-Carboxy-4-(19-carboxyheptadecanoylamino)butyrylamino]ethoxy}ethoxy)acetylamino]ethoxy}ethoxy)acetyl]-[Glu14,Lys21,Ser28,Arg29,His35]-pramlintide] (H-KCNTATCATQRLAEFLVHSSK([AEEA-AEEA-γGlu-C20 diacid])NFGPILSRTNVGSHTY-NH2; disulfide 2-7), the solubility under setting [1] is over 200 µM; the solubility under setting [2] is over 200 µM; the solubility under setting [3] is over 200 µM; the solubility under setting [4] is over 200 µM; the solubility under setting [5] turned out to be 1 µM (≈ 4.79 µg/mL); the solubility under setting [6] was 1 µM (≈ 4.79 µg/mL). Besides, the solubility under setting [7] came out at 1 µM (≈ 4.79 µg/mL) and the solubility under setting [8] is 1 µM (≈ 4.79 µg/mL).

Consider `CC[C@H](C)[C@H](NC(=O)[C@H](CCCCNC(=O)COCCOCCNC(=O)COCCOCCNC(=O)CC[C@H](NC(=O)CCCCCCCCCCCCCCCCCCC(=O)O)C(=O)O)NC(=O)CNC(=O)[C@H](Cc1ccccc1)NC(=O)[C@H](CC(N)=O)NC(=O)[C@H](Cc1c[nH]cn1)NC(=O)[C@H](CO)NC(=O)[C@H](CO)NC(=O)[C@H](Cc1c[nH]cn1)NC(=O)[C@H](Cc1c[nH]cn1)NC(=O)[C@H](CC(C)C)NC(=O)[C@H](Cc1ccccc1)NC(=O)[C@H](CC(N)=O)NC(=O)[C@H](C)NC(=O)[C@H](CC(C)C)NC(=O)[C@H](CCCNC(=N)N)NC(=O)[C@H](CCC(N)=O)NC(=O)[C@@H](NC(=O)[C@H](C)NC(=O)[C@@H]1CSSC[C@H](NC(=O)[C@@H](N)CCCCN)C(=O)N[C@@H](CC(N)=O)C(=O)N[C@@H]([C@@H](C)O)C(=O)N[C@@H](C)C(=O)N[C@@H]([C@@H](C)O)C(=O)N1)[C@@H](C)O)C(=O)N[C@@H](CC(C)C)C(=O)N[C@@H](CO)C(=O)N[C@@H](CO)C(=O)N[C@H](C(=O)N[C@@H](CC(N)=O)C(=O)N[C@H](C(=O)NCC(=O)N[C@@H](CO)C(=O)N[C@@H](Cc1c[nH]cn1)C(=O)N[C@H](C(=O)N[C@@H](Cc1ccc(O)cc1)C(N)=O)[C@@H](C)O)C(C)C)[C@@H](C)O` [Example 134, N-epsilon25-[2-(2-{2-[2-(2-{2-[(S)-4-Carboxy-4-(19-carboxyheptadecanoylamino)butyrylamino]ethoxy}ethoxy)acetylamino]ethoxy}ethoxy)acetyl]-[His17,His21,Lys25,Ser28,Ser29.His35]-pramlintide] (H-KCNTATCATQRLANFLHHSSHNFGK([AEEA-AEEA-γGlu-C20 diacid])ILSSTNVGSHTY-NH2; disulfide 2-7), for which the solubility is over 200 µM under setting [1]; over 200 µM under setting [3]; over 200 µM under setting [4]; 3 µM (≈ 14.4 µg/mL) under setting [5]; 1 µM (≈ 4.79 µg/mL) under setting [6]; 2 µM (≈ 9.58 µg/mL) under setting [7]. Besides, the solubility reads like this: under setting [8], 3 µM (≈ 14.4 µg/mL); under setting [9], 2 µM (≈ 9.58 µg/mL).

Take `CC[C@H](C)[C@H](NC(=O)[C@@H]1CCCN1C(=O)CNC(=O)[C@H](Cc1ccccc1)NC(=O)[C@H](CC(N)=O)NC(=O)[C@H](CCCCNC(=O)COCCOCCNC(=O)COCCOCCNC(=O)CC[C@H](NC(=O)CCCCCCCCCCCCCCCCCCC(=O)O)C(=O)O)NC(=O)[C@H](CO)NC(=O)[C@H](CO)NC(=O)[C@H](Cc1c[nH]cn1)NC(=O)[C@H](Cc1c[nH]cn1)NC(=O)[C@H](CC(C)C)NC(=O)[C@H](Cc1ccccc1)NC(=O)[C@H](CCC(=O)O)NC(=O)[C@H](C)NC(=O)[C@H](CC(C)C)NC(=O)[C@H](CCCNC(=N)N)NC(=O)[C@H](CCC(N)=O)NC(=O)[C@@H](NC(=O)[C@H](C)NC(=O)[C@@H]1CSSC[C@H](NC(=O)[C@@H](N)CCCCN)C(=O)N[C@@H](CC(N)=O)C(=O)N[C@@H]([C@@H](C)O)C(=O)N[C@@H](C)C(=O)N[C@@H]([C@@H](C)O)C(=O)N1)[C@@H](C)O)C(=O)N[C@@H](CC(C)C)C(=O)N[C@@H](CO)C(=O)N[C@@H](CO)C(=O)N[C@H](C(=O)N[C@@H](CC(N)=O)C(=O)N[C@H](C(=O)NCC(=O)N[C@@H](CO)C(=O)N[C@@H](Cc1c[nH]cn1)C(=O)N[C@H](C(=O)N[C@@H](Cc1ccc(O)cc1)C(N)=O)[C@@H](C)O)C(C)C)[C@@H](C)O` [Example 148, N-epsilon21-[2-(2-{2-[2-(2-{2-[(S)-4-Carboxy-4-(19-carboxyheptadecanoylamino)butyrylamino]ethoxy}ethoxy)acetylamino]ethoxy}ethoxy)acetyl]-[Glu14,His17,Lys21,Ser28,Ser29,His35]-pramlintide] (H-KCNTATCATQRLAEFLHHSSK([AEEA-AEEA-γGlu-C20 diacid])NFGPILSSTNVGSHTY-NH2; disulfide 2-7): the solubility is over 200 µM under setting [1]; over 200 µM under setting [2]; over 200 µM under setting [3]; over 200 µM under setting [4]; 51 µM (≈ 243 µg/mL) under setting [5]; 19 µM (≈ 90.5 µg/mL) under setting [6]. Moreover, the solubility by setting is: under setting [7], 1 µM (≈ 4.76 µg/mL); under setting [8], 1 µM (≈ 4.76 µg/mL).

For `CC[C@H](C)[C@H](NC(=O)[C@H](CCCCNC(=O)COCCOCCNC(=O)COCCOCCNC(=O)CC[C@H](NC(=O)CCCCCCCCCCCCCCCCCCC(=O)O)C(=O)O)NC(=O)CNC(=O)[C@H](Cc1ccccc1)NC(=O)[C@H](CC(N)=O)NC(=O)[C@H](CO)NC(=O)[C@H](CO)NC(=O)[C@H](CO)NC(=O)[C@H](Cc1c[nH]cn1)NC(=O)[C@H](Cc1c[nH]cn1)NC(=O)[C@H](CC(C)C)NC(=O)[C@H](Cc1ccccc1)NC(=O)[C@H](CCC(=O)O)NC(=O)[C@H](C)NC(=O)[C@H](CC(C)C)NC(=O)[C@H](CCCNC(=N)N)NC(=O)[C@H](CCC(N)=O)NC(=O)[C@@H](NC(=O)[C@H](C)NC(=O)[C@@H]1CSSC[C@H](NC(=O)[C@@H](N)CCCCN)C(=O)N[C@@H](CC(N)=O)C(=O)N[C@@H]([C@@H](C)O)C(=O)N[C@@H](C)C(=O)N[C@@H]([C@@H](C)O)C(=O)N1)[C@@H](C)O)C(=O)N[C@@H](CC(C)C)C(=O)N[C@@H](CO)C(=O)N[C@@H](CO)C(=O)N[C@H](C(=O)N[C@@H](CC(N)=O)C(=O)N[C@H](C(=O)NCC(=O)N[C@@H](CO)C(=O)N[C@@H](Cc1c[nH]cn1)C(=O)N[C@H](C(=O)N[C@@H](Cc1ccc(O)cc1)C(N)=O)[C@@H](C)O)C(C)C)[C@@H](C)O` [Example 133, N-epsilon25-[2-(2-{2-[2-(2-{2-[(S)-4-Carboxy-4-(19-carboxyheptadecanoylamino)butyrylamino]ethoxy}ethoxy)acetylamino]ethoxy}ethoxy)acetyl]-[Glu14,His17,Ser21,Lys25,Ser28,Ser29.His35]-pramlintide] (H-KCNTATCATQRLAEFLHHSSSNFGK([AEEA-AEEA-γGlu-C20 diacid])ILSSTNVGSHTY-NH2; disulfide 2-7), the solubility under setting [1] is over 200 µM; the solubility under setting [2] was over 200 µM; the solubility under setting [3] was over 200 µM; the solubility under setting [4] amounted to 107 µM (≈ 509 µg/mL); the solubility under setting [5] was determined as 1 µM (≈ 4.75 µg/mL); the solubility under setting [6] is 1 µM (≈ 4.75 µg/mL). The solubility runs as follows: under setting [7], 1 µM (≈ 4.75 µg/mL); under setting [8], 1 µM (≈ 4.75 µg/mL).

Values taken from patent US8722849B2, “Polypeptides” (Novo Nordisk A/S, priority 2011, dated 2014).
